The target of data set [1] is T1, sGC enzyme (Homo sapiens, UniProt Q02108+Q02153).
T1 construct: sGC enzyme activity values in HEK cells, determined by the GloSensor assay; host or cells: HEK293 expressing GloSensor 40F cGMP
T1 sequence (Q02153 1-619): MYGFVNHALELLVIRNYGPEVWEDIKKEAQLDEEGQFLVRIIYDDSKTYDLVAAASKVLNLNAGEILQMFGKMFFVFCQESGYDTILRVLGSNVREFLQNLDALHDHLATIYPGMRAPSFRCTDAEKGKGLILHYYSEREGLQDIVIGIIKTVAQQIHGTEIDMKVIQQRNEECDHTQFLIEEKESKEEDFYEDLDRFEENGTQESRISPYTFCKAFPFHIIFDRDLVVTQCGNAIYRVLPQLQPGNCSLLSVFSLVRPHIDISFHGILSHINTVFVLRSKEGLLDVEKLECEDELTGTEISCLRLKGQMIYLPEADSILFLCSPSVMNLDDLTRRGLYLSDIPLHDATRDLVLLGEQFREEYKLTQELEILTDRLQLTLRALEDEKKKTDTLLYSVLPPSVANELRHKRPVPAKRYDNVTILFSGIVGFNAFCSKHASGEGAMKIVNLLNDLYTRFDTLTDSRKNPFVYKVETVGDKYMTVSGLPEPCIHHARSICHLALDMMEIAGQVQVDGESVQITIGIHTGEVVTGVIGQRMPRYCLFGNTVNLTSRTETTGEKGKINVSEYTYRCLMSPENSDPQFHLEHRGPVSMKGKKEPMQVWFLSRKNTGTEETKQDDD
T1 sequence (Q02108 1-690): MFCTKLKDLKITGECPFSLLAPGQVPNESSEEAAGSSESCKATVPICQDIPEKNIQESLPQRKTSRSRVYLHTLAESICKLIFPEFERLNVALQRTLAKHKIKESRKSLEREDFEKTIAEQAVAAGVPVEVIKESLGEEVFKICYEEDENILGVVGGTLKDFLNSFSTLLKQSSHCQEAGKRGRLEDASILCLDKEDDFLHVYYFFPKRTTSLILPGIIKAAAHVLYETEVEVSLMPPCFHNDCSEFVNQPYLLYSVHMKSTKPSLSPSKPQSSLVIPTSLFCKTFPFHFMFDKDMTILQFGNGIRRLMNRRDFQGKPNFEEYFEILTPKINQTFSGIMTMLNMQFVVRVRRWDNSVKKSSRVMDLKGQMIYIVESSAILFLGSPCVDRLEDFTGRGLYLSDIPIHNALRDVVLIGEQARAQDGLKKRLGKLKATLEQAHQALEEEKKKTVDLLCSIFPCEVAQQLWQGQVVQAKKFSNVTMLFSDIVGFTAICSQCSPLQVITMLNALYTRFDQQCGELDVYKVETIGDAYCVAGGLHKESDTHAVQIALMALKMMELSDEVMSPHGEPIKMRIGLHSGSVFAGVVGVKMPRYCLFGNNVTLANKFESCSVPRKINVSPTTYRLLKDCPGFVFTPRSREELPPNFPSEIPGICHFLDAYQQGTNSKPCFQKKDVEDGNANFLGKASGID
The data set is described as follows: cGMP GloSensor cell-based assay, 384-well format. The note with it: for EC50: HEK293 GloSensor 40F cGMP cells, 10 μM DETA-NONOate, read-out: Absolute EC50. An excerpt: Human embryonic kidney cells (HEK293) cells expressing GloSensor™ 40F cGMP (Part No: CS182801, Promega) were used to evaluate the activity of test compounds. The luminescent biosensors (engineered luciferase) that were incorporated into these cells detect cGMP formed by the compounds stimulating the sGC enzyme and emit luminescence.
cGMP GloSensor cells were maintained in Dulbecco's Modification of Eagle's Medium (DMEM) supplemented with fetal bovine serum (FBS, 10% final) and hygromycine (200 ug/ml). The day before assay, cells were plated in DMEM with 10% FBS in a 50 μL volume at a density of 1.5×10^4 cells/well in a poly-D-lysine coated 384-well flat white-bottom plate (Corning Cat. No. 35661). Cells were incubated overnight at 37° C. in a humidified chamber with 5% CO2. The next day, medium was removed and cells were replaced with 40 ul/well of GloSensor™, 2 mM (Promega Cat No E1291). Cells were treated for 90 minutes at 25° C. to allow the substrate to equilibrate in the cells. Test compounds and Diethylenetriamine NONOate (DETA-NONOate) was diluted to 3 mM (20×) in serum-free CO2 independent medium and serially diluted at 4× dilutions to create 5× dose curve from which 10 ul was added to the wells (x μM concentration for test compound solution and 10 μM concentration for DETA-NONOate solution; wherein x is one of the following final concentrations).
For the kinetics studies, luminescence was measured right away for 0.2 sec per well with Envision (Perkin Elmer). For endpoint SAR screening, data were collected after 55 min incubation at room temperature.
Data analysis was carried out as indicated above in Example 2A.
sGC enzyme activity values in HEK cells, determined by the GloSensor assay, expressed as Absolute EC50 which is defined as the concentration at which a given compound elicits 50% of the high control response obtained with Compound Y, after normalization.

Data set [2] can be described thus: Rat PK following intravenous and oral dosing. In kind it is in vivo, male Sprague-Dawley rats.
[3] abbreviates: plasma, Intermediate 3 dosed 1 mg/kg IV in PEG.
Setting [4] is: plasma, Intermediate 3 dosed 3.0 mg/kg PO.

The values below come from patent US10927136B2, “Phosphorus prodrugs of pyrazolo-substituted pyrimidine sGC stimulators” (Cyclerion Therapeutics, Inc., priority 2016, dated 2021).

Read-outs that look alike come from different tables or passages of the source.

The term EC50 denotes the concentration needed to bring the measured effect to its halfway point. As a reminder, the AUC(0-inf) is total exposure, with the tail of the curve extrapolated. A higher AUC(0-inf) goes with high exposure. As a reminder, the Cmax is the highest concentration seen after dosing. What is called AUC(0-t) is the area under the concentration-time curve up to a stated or last time point. High values mean more exposure, low ones less exposure. The Tmax is the time from dosing to the highest level. In general, half-life refers to the time needed for the level to fall by half in the phase considered. Low values mean fast loss, high ones slow loss.

As to `O=P(O)(O)OC(CNc1nc(-c2cc(-c3ccon3)n(Cc3ccccc3F)n2)ncc1F)(C(F)(F)F)C(F)(F)F` [Compound I-1], in data set [1] (GloSensor assay), the “sGC agonism as compared to parent drug” value is on record as “did not exhibit a high degree of sGC agonism”. Moreover, the concentration for a half-maximal effect (EC50) in data set [1] (prodrug) worked out at 4.84 µM. For the same molecule, the “Vol. of Dist” value in data set [2] (Compound I-1 1 mg/kg IV in PBS, analyte Compound I-1) was 4.4 ± 2.6 L/kg.
Turning to `OC(CNc1nc(-c2cc(-c3ccon3)n(Cc3ccccc3F)n2)ncc1F)(C(F)(F)F)C(F)(F)F` [Intermediate 3], the EC50 in data set [1] (Parent compound column) is 0.072 µM. For the same molecule, the “Vol. of Dist” value in data set [2] (Intermediate 3 dosed 1 mg/kg IV in PEG) amounted to 9.5 L/kg. Also, the “Bioavail. (%)” value in data set [2] (Intermediate 3 dosed 3.0 mg/kg PO) was 102%. Moreover, in data set [2] (setting [3]), the total exposure AUC(0-inf) stood at 1100 ng·h/mL, the peak level (Cmax) was 227 ng/mL and the clearance was found to be 16 mL/min/kg. For the same molecule, in data set [2] (setting [4]), the exposure AUC(0-t) amounted to 3600 ± 280 ng·h/mL, the Cmax was 250 ± 10 ng/mL and the Tmax is 8 h. The molecule further showed a half-life in data set [2] (plasma, iv, 1 mg/kg, Intermediate 3 dosed 1 mg/kg IV in PEG) of 7.1 h.
